Experiment [1] addresses CXCR-4 receptor (Homo sapiens, UniProt P61073). It counts as binding. The note with it: A549 cells.
For experiment [2], the target named is human α4β2 nicotinic acetylcholine receptor (nAChR) (Homo sapiens, UniProt P17787+P43681). It is filed as binding. The note with it: SH-EP1-α4β2 cells.
human α4β2 nicotinic acetylcholine receptor (nAChR), sequence (P43681 29-627 limits assumed): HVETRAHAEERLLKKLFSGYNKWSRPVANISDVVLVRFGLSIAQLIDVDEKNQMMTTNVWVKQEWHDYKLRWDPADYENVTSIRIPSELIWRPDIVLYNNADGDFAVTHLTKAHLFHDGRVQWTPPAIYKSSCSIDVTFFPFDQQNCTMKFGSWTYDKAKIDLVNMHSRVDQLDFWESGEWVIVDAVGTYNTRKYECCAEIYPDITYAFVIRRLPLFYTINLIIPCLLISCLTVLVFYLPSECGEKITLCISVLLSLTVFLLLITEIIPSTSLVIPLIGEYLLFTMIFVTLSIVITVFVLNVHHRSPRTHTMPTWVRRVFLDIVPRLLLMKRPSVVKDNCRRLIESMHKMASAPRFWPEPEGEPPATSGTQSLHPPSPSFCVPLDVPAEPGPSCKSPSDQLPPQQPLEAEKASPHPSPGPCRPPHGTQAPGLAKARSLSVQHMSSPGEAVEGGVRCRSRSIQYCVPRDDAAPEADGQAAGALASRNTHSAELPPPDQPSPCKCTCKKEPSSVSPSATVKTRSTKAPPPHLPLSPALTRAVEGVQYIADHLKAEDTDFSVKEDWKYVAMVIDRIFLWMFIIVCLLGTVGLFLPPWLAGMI
human α4β2 nicotinic acetylcholine receptor (nAChR), sequence (P17787 26-502): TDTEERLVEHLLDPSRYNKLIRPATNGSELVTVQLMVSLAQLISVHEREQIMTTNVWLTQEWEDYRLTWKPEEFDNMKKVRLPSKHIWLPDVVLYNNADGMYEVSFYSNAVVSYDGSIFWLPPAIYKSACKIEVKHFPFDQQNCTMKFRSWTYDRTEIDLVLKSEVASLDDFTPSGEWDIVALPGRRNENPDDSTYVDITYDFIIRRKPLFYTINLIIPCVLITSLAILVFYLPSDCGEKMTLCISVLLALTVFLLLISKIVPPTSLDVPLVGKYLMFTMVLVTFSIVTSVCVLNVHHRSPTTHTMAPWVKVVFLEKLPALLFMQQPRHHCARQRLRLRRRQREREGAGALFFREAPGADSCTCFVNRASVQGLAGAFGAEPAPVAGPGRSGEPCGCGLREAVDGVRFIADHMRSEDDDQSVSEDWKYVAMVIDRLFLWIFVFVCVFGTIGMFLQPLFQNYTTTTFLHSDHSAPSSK

CXCR-4 receptor, sequence (P61073 whole entry): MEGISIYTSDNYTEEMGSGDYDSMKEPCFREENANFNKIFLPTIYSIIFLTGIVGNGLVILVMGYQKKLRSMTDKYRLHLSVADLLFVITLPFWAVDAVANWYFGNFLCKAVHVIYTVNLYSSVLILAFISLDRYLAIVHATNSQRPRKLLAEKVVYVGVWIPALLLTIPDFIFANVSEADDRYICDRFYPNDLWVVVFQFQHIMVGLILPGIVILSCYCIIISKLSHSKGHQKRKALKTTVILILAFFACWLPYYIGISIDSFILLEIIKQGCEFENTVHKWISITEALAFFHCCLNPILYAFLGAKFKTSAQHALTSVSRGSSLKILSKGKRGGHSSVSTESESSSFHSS

`c1cc(CN2CCCNCCNCCCNCC2)ccc1CN1CCCNCCNCCCNCC1` [AMD3100]: in experiment [1], the “binding induced membrane deformation, maximum value” turned out to be 46 nm.

For `CC(=O)OCC[N+](C)(C)C` [acetylcholine], the maximum membrane deformation entry in experiment [2] is “around 70 nm”.

The values above are taken from PMC5851003 (ACS nano, 2018).
